# Laboratory results from patent US20200017496A1 (priority 2017, published 2020).
# Like-named read-outs stand apart in the source and are kept apart here.
# Key:
# in vivo = test: in vivo; set-up: species or system Swiss Mouse; conditions: male, Swiss, mouse, in vivo, 10 mg/kg
# Procedure: Water and food were available ad libitum throughout the study. Mouse were handled in accordance with the institutional and national guidelines for the care and use of laboratory animals. […] Drugs were administered by oral gavage using feeding needle. […] Plasma samples were stored at -80° C. until bioanalysis. […] Plasma samples bioanalysis and data analysis The plasma samples (20 μl) were thawed at 0° C. […] Standard samples were prepared by spiking the blank plasma into concentrations 10-5 000 ng/ml and otherwise treated as the samples. […] Mass spectrometric detection involved electrospray ionization in the negative mode followed by multiple reaction monitoring of the drugs and internal standard transitions. Actual drug concentrations were deduced from interpolation of the standard curve. The pharmacokinetic parameters were calculated using XLfit (IDBS) and Excel (Microsoft) software, using standard non-compartmental methods. The intraduodenal bioavailability was calculated by dividing the AUC obtained from the intraduodenal administration by the AUC obtained from the intravenous administration.
# [1] = test system: Escherichia coli (ECO) isolates; test: MIC of compounds alone and combined with antibacterials, broth microdilution (CLSI); type: cell-based
# Method in brief: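 Log-phase isolates at final 5·10^5 CFU/mL in cation-adjusted Mueller-Hinton broth, incubated 16-20 h at 35° C in ambient air. MIC read visually as lowest concentration preventing growth, for compound alone and for antibacterial at each compound concentration.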
compound,measurement,setting,value
"C=CC1=C(C(=O)O)N2C(=O)[C@@H](NC(=O)/C(=N\OCC(=O)O)c3csc(N)n3)[C@H]2SC1 [FIX, Cefixime]",AUC(0-inf),in vivo; iv,37200 ng·h/mL
same,bioavailability,in vivo; po,45%
same,MIC ATB in combination,[1],>128 µg/mL
same,MIC ATB in combination,"[1]; ECO 4133, AF1 @ 4 μg/mL",<=0.25 μg/mL
same,MIC ATB in combination,"[1]; ECO 4133, AF1 @ 8 μg/mL",<=0.25 μg/mL
same,MIC ATB in combination,"[1]; ECO 5302, AF1 @ 4 μg/mL",<=0.25 μg/mL
same,MIC ATB in combination,"[1]; ECO 5302, AF1 @ 8 μg/mL",<=0.25 μg/mL
same,MIC ATB in combination,"[1]; ECO 131119, AF1 @ 4 μg/mL",<=0.25 μg/mL
same,MIC ATB in combination,"[1]; ECO 131119, AF1 @ 8 μg/mL",<=0.25 μg/mL
same,MIC ATB in combination,"[1]; ECO 180070, AF1 @ 4 μg/mL",<=0.25 μg/mL
same,MIC ATB in combination,"[1]; ECO 180070, AF1 @ 8 μg/mL",<=0.25 μg/mL
same,MIC ATB in combination,"[1]; ECO 190314, AF1 @ 4 μg/mL",<=0.25 μg/mL
same,MIC ATB in combination,"[1]; ECO 190314, AF1 @ 8 μg/mL",<=0.25 μg/mL
same,MIC ATB in combination,"[1]; ECO 190317, AF1 @ 4 μg/mL",<=0.25 μg/mL
same,MIC ATB in combination,"[1]; ECO 190317, AF1 @ 8 μg/mL",<=0.25 μg/mL
same,MIC ATB in combination,"[1]; ECO 190457, AF1 @ 8 μg/mL",0.031 µg/mL
same,MIC ATB in combination,"[1]; ECO 190549, AF1 @ 4 μg/mL",<=0.25 μg/mL
same,MIC ATB in combination,"[1]; ECO 190549, AF1 @ 8 μg/mL",<=0.25 μg/mL
same,MIC ATB in combination,"[1]; ECO 200159, AF1 @ 4 μg/mL",<=0.25 μg/mL
same,MIC ATB in combination,"[1]; ECO 200159, AF1 @ 8 μg/mL",<=0.25 μg/mL
same,MIC ATB in combination,"[1]; ECO 200259, AF1 @ 4 μg/mL",<=0.25 μg/mL
same,MIC ATB in combination,"[1]; ECO 200259, AF1 @ 8 μg/mL",<=0.25 μg/mL
same,MIC ATB in combination,"[1]; ECO 200344, AF1 @ 4 μg/mL",<=0.25 μg/mL
same,MIC ATB in combination,"[1]; ECO 200344, AF1 @ 8 μg/mL",<=0.25 μg/mL
same,MIC ATB in combination,"[1]; ECO 260096, AF1 @ 4 μg/mL",<=0.25 μg/mL
same,MIC ATB in combination,"[1]; ECO 260096, AF1 @ 8 μg/mL",<=0.25 μg/mL
same,MIC ATB in combination,"[1]; ECO 260304, AF1 @ 4 μg/mL",<=0.25 μg/mL
same,MIC ATB in combination,"[1]; ECO 260304, AF1 @ 8 μg/mL",<=0.25 μg/mL
same,MIC ATB in combination,"[1]; ECO 260508, AF1 @ 4 μg/mL",<=0.25 μg/mL
same,MIC ATB in combination,"[1]; ECO 260508, AF1 @ 8 μg/mL",<=0.25 μg/mL
same,MIC ATB in combination,"[1]; ECO RGN238, AF1 @ 4 μg/mL",<=0.25 μg/mL
same,MIC ATB in combination,"[1]; ECO RGN238, AF1 @ 8 μg/mL",<=0.25 μg/mL
same,MIC ATB in combination,"[1]; ECO UFR15, AF1 @ 4 μg/mL",<=0.25 μg/mL
same,MIC ATB in combination,"[1]; ECO UFR15, AF1 @ 8 μg/mL",<=0.25 μg/mL
same,MIC ATB in combination,"[1]; ECO UFR16, AF1 @ 4 μg/mL",<=0.25 μg/mL
same,MIC ATB in combination,"[1]; ECO UFR16, AF1 @ 8 μg/mL",<=0.25 μg/mL
same,MIC ATB in combination,"[1]; ECO UFR17, AF1 @ 8 μg/mL",16 µg/mL
same,MIC ATB in combination,"[1]; ECO UFR18, AF1 @ 4 μg/mL",16 µg/mL
same,MIC ATB in combination,"[1]; ECO UFR18, AF1 @ 8 μg/mL",0.5 µg/mL
same,MIC ATB in combination,"[1]; ECO UFR19, AF1 @ 4 μg/mL",16 µg/mL
same,MIC ATB in combination,"[1]; ECO UFR19, AF1 @ 8 μg/mL",<0.25 µg/mL
same,MIC ATB in combination,"[1]; ECO UFR20, AF1 @ 4 μg/mL",1 µg/mL
same,MIC ATB in combination,"[1]; ECO UFR20, AF1 @ 8 μg/mL",1 µg/mL
same,MIC ATB in combination,"[1]; ECO UFR61O, AF1 @ 4 μg/mL",0.25 µg/mL
same,MIC ATB in combination,"[1]; ECO UFR62, AF1 @ 4 μg/mL",<=0.25 μg/mL
same,MIC ATB in combination,"[1]; ECO UFR62, AF1 @ 8 μg/mL",<=0.25 μg/mL
same,MIC ATB in combination,"[1]; ECO UFR74, AF1 @ 4 μg/mL",32 µg/mL
same,MIC ATB in combination,"[1]; ECO UFR74, AF1 @ 8 μg/mL",1 µg/mL
same,MIC ATB in combination,"[1]; ECO UFR86, AF1 @ 4 μg/mL",0.5 µg/mL
same,MIC ATB in combination,"[1]; ECO UFR86, AF1 @ 8 μg/mL",<=0.25 μg/mL
same,MIC ATB in combination,"[1]; ECO UFR174, AF1 @ 4 μg/mL",<=0.25 μg/mL
same,MIC ATB in combination,"[1]; ECO UFR174, AF1 @ 8 μg/mL",<0.25 µg/mL
same,MIC ATB in combination,"[1]; ECO UFR175, AF1 @ 4 μg/mL",<=0.25 μg/mL
same,MIC ATB in combination,"[1]; ECO UFR175, AF1 @ 8 μg/mL",<=0.25 μg/mL
same,MIC ATB in combination,"[1]; ECO UFR176, AF1 @ 4 μg/mL",<=0.25 μg/mL
same,MIC ATB in combination,"[1]; ECO UFR176, AF1 @ 8 μg/mL",<=0.25 μg/mL
same,MIC ATB in combination,"[1]; ECO UFR184, AF1 @ 4 μg/mL",8 µg/mL
same,MIC ATB in combination,"[1]; ECO UFR184, AF1 @ 8 μg/mL",<=0.25 μg/mL
same,MIC ATB in combination,"[1]; ECO UFR185, AF1 @ 4 μg/mL",4 µg/mL
same,MIC ATB in combination,"[1]; ECO UFR185, AF1 @ 8 μg/mL",<0.25 µg/mL
same,MIC ATB in combination,"[1]; ECO UFR186, AF1 @ 4 μg/mL",<=0.25 μg/mL
same,MIC ATB in combination,"[1]; ECO UFR186, AF1 @ 8 μg/mL",<=0.25 μg/mL
same,MIC ATB in combination,"[1]; ECO UFR187, AF1 @ 4 μg/mL",<=0.25 μg/mL
same,MIC ATB in combination,"[1]; ECO UFR187, AF1 @ 8 μg/mL",<=0.25 μg/mL
same,MIC ATB in combination,"[1]; ECO UFR189, AF1 @ 4 μg/mL",<=0.25 μg/mL
same,MIC ATB in combination,"[1]; ECO UFR189, AF1 @ 8 μg/mL",<=0.25 μg/mL
same,MIC ATB in combination,"[1]; ECO UFR190, AF1 @ 4 μg/mL",<=0.25 μg/mL
same,MIC ATB in combination,"[1]; ECO UFR190, AF1 @ 8 μg/mL",<=0.25 μg/mL
same,MIC ATB in combination,"[1]; ECO UFR191, AF1 @ 4 μg/mL",<=0.25 μg/mL
same,MIC ATB in combination,"[1]; ECO UFR191, AF1 @ 8 μg/mL",<=0.25 μg/mL
